The source of these data is PubChem BioAssay AID1507 (NMMLSC, 2009).

The source made the active and inactive calls. The rule behind the calls is not given here.

For this assay, the system named is S. aureus strains, alpha hemolysin production inhibition. Put plainly: inhibition of S. aureus alpha hemolysin production, S. aureus quorum sensing inhibitors, NM300, NM400, MRSA3757 (AID 1507). The settings on record: for inhibition: stronger effect = higher value.
[1] abbreviates: hemolysin inhibition, MRSA3757, at 12 µM.
[2] abbreviates: hemolysin inhibition, strain NM400, at 12 µM.

With `CC1CCCN(C(C(=O)Nc2ccc3c(c2)OCCO3)c2ccccc2)C1` (stereo not given), the outcome (at 12 µM) was “inactive; agr3 active”. Also, the inhibition under setting [1] is 20% and the inhibition under setting [2] came out at 57%.

For `CCc1oc2ccccc2c1C(=O)c1cc(Br)c(O)c(Br)c1`, the inhibition was 100% (at 6 µM) and 100% (hemolysin inhibition, strain NM300, at 6 µM).

As to `Cc1c(Cl)cccc1Nc1ccccc1C(=O)O`, the inhibition is 99% (at 30 µM) and 100% (hemolysin inhibition, strain NM300, at 30 µM).

As for `CC1CCCN(C(C(=O)Nc2ccc3c(c2)OCO3)c2ccccc2)C1` (stereo not given), the outcome (at 12 µM) was “inactive; agr3 active”. For the same compound, the inhibition reads like this: under setting [1], 15%; under setting [2], 55%.

Broadly, the inhibition is the relative decrease from the control value, in per cent.
